Measurements: publication PMC10100771, “A Novel CMY Variant Confers Transferable High-Level Resistance to Ceftazidime-Avibactam in Multidrug-Resistant Escherichia coli” (Microbiology Spectrum, 2023)
Values after ≈ are worked out from the molar mass of the structure shown. Read-outs that look alike come from different tables or passages of the source.

Legend:
CMY-2 = target: T1, CMY-2 (Klebsiella pneumoniae, UniProt Q48434); assay: Ki by direct competition assay with nitrocefin, CMY-2; assay type: biochemical
T1 construct: were amplified without a signal peptide and cloned into the pET28a; His8 (N); made in house; host or cells: E. coli BL21(DE3)
Protocol: (§1) blaCMYs (including blaCMY-2, blaCMY-172, and blaCMY-178) were amplified without a signal peptide and cloned into the pET28a, which led to the introduction of an N-terminal His8-Tag.The recombinant plasmids were transformed into E. coli BL21(DE3) and selected using Sanger sequencing. Lysogenic broth containing 50 μg/mL kanamycin was inoculated with transformants and grown to reach an OD600 of 0.6. A final concentration of 1 mM isopropyl-β-D-thiogalactopyranoside (IPTG) was added into the resulting culture, which was shaken at 18°C overnight. The culture broth was centrifuged to harvest bacteria. The pellet was resuspended in lysis buffer (50 mM Tris-HCl and 300 mM NaCl (pH 7.5)) and disrupted using a JN-02C French press (JNBIO, Guangzhou, China) at 1,100 bar. Then, the cell debris was removed by centrifugation at 11,000 rpm for 40 min at 4°C. The supernatant was added to an Ni column, and the absorbed protein was eluted by the eluent buffer (lysis buffer with 300 mM imidazole).
(§2) Enzymatic activities were measured using a D8 UV-visible spectrophotometer (Rumqee, Shanghai, China) in phosphate-buffered saline (PBS; pH 7.2) at room temperature. Substrates tested included nitrocefin, ceftazidime, and avibactam. […] The initial reaction velocities (v) were measured and Ki values were calculated by fitting data into equation 1 with GraphPad Prism v9.0.0 ([37]). […]

CMY-172 = target: T2, CMY-172 (Klebsiella pneumoniae, UniProt Q48434, DEL310-312/N366I); assay: Ki by direct competition assay with nitrocefin, CMY-172; assay type: biochemical; conditions: competition with 100 μM nitrocefin, 2-min incubation, mean ± SD
T2 construct: were amplified without a signal peptide and cloned into the pET28a; His8 (N); made in house; host or cells: E. coli BL21(DE3)
Protocol: as §1, §2

CMY-178 = target: T3, CMY-178 (Klebsiella pneumoniae, UniProt Q48434, DEL310-312/N366I/N90T); assay: Ki by direct competition assay with nitrocefin, CMY-178; assay type: biochemical, Escherichia coli; conditions: for Ki: CMY-178, competition with 100 μM nitrocefin, 2-min incubation, mean ± SD; for Increase of Ki value of CMY-178 compared with CMY-172: CMY-178 vs CMY-172
T3 construct: were amplified without a signal peptide and cloned into the pET28a; His8 (N); made in house; host or cells: E. coli BL21(DE3)
Protocol: as §1
Enzymatic activities were measured using a D8 UV-visible spectrophotometer (Rumqee, Shanghai, China) in phosphate-buffered saline (PBS; pH 7.2) at room temperature. Substrates tested included nitrocefin, ceftazidime, and avibactam. The extinction coefficient and wavelength of nitrocefin are 17,400 M^−1 · cm^−1 and 482 nm, respectively. […] The initial reaction velocities (v) were measured and Ki values were calculated by fitting data into equation 1 with GraphPad Prism v9.0.0 ([37]). (1) v=Vmax[S]/[S]+Km NCF (1+[I]/Ki)

E. coli strain AR13438 = assay: MIC by agar dilution, clinical isolate AR13438; assay type: cell-based, Escherichia coli; conditions: Escherichia coli; AR13438, clinical E. coli isolate (blaCMY-178, blaTEM-1, blaCTX-M-27); agar dilution
Protocol: (§3) Antimicrobial susceptibility testing was performed and interpreted according to the Clinical and Laboratory Standards Institute (CLSI) guidelines and breakpoints (M100, 31st edition) by the agar dilution method. E. coli ATCC 25922 and K. pneumoniae ATCC 700603 served as control strains.
(§4) The antibiotics we used included meropenem (Hanhui Pharmaceutical Co., Ltd., China), imipenem (Merck Sharp & Dohme Corp., USA), cefepime (Jiangsu Hengrui Pharmaceutical Co., Ltd., China), piperacillin (Suzhou Erye Pharmaceutical Co., Ltd., China), ceftazidime (Guangdong Jincheng Jinsu Pharmaceutical Co., Ltd., China), tazobactam (Meilunbio, China), avibactam (MedChemExpress, USA), aztreonam (Sigma-Aldrich, USA), amikacin (Meilunbio), cefuroxime (Esseti Farmaceutici S.r.l., Italy), fosfomycin (Harbin Pharmaceutical Group Co., Ltd. China), levofloxacin (Daiichi Sankyo Company Limited, Beijing, China), and cefotaxime (North China Pharmaceutical Hebei Huamin Pharmaceutical Co., Ltd., China).

[1] = tested on: K. pneumoniae isolate KPCZA02; assay: microbe, parasite or virus in culture; assay type: cell-based; conditions: Klebsiella pneumoniae
Protocol: as §3

E. coli DH5α = assay: MIC by agar dilution, E. coli DH5α; assay type: cell-based; conditions: Escherichia coli
Protocol: as §3, §4

E. coli DH5α-pCR2.1 = assay: MIC by agar dilution, DH5α with blank vector pCR2.1; assay type: cell-based; conditions: Escherichia coli
Protocol: as §3, §4
(§5) The blaCMY cloning was performed using a TA cloning kit (Invitrogen, Shanghai, China). The blaCMY-178 gene combined with its predicted promoter was amplified from isolate AR13438. Then, the blaCMY-178 gene was cloned into the linearized vector pCR2.1 using T4 DNA ligase (Invitrogen). The blaCMY-172 gene was cloned from KPCZA02 with the same method. The resulting plasmids were chemically transformed into E. coli DH5α. The positive transformants were identified by blue-white screening in MH agar containing 50 μg/mL kanamycin and were further confirmed by Sanger sequencing. The pCR2.1 blank vector was also transformed into E. coli DH5α as a control. The primers used for cloning were CMY-F and CMY-R (see Table S2 in the supplemental material). Relative CMY expression was measured by reverse transcription-quantitative PCR as described previously ([34]). Specific quantitative PCR (qPCR) primers (q-recA-F/R and q-CMY-F/R) were designed (Table S2).

[2] = tested on: E. coli DH5α-pCR2.1-CMY-2; assay: MIC by agar dilution, transformant containing blaCMY-2; assay type: cell-based; conditions: Escherichia coli
[3] = tested on: E. coli DH5α-pCR2.1-CMY-178; assay: MIC by agar dilution, transformant containing blaCMY-178; assay type: cell-based, Escherichia coli
Protocol: as §3, §4, §5

[4] = tested on: E. coli DH5α-pCR2.1-CMY-172; assay: MIC by agar dilution, transformant containing blaCMY-172; assay type: cell-based; conditions: Escherichia coli
Protocol: as §3, §4, §5

E. coli J53 = assay: MIC by agar dilution, recipient E. coli J53; assay type: cell-based; conditions: Escherichia coli
Protocol: as §3, §4
(§6) Conjugation experiments were performed by filter mating using sodium-azide-resistant E. coli J53 as the recipient, as described previously. Transconjugants were selected with MH agar containing 100 μg/mL sodium azide and 4 μg/mL ceftazidime-avibactam; furthermore, transconjugants were named J53-AR13438 and J53-KPCZA02, respectively. We compared genomes of AR13438 and J53 to select a unique gene (gtrA) to J53. The blaCMY-178-postive transconjugants were confirmed by PCR and MALDI-TOF MS (see Fig. S9 in the supplemental material). The primers used for PCR were gtrA-F, gtrA-R, CMY-F, and CMY-R (Table S1). The transfer frequencies were calculated as the number of transconjugants (CFU/mL) divided by the number of recipients (CFU/mL). Donors and recipients were mixed at 1:1 for the transfer frequency experiment. S1-PFGE and Southern blotting were performed to define the location of blaCMY-178 and confirm the transmission of the plasmid as described previously ([35]). The MIC profiles of transconjugants were also determined by the agar dilution method.

E. coli J53-AR13438 = assay: MIC by agar dilution, conjugant containing pAR13438_2; assay type: cell-based; conditions: Escherichia coli, J53AR13438, E. coli J53-AR13438 (blaCMY-178)
Protocol: as §3
as §6, with “The blaCMY-178-postive transconjugants were confirmed by PCR and MALDI-TOF MS (see Fig. S9 in the supplemental material).” left out

E. coli J53-KPCZA02 = assay: MIC by agar dilution, conjugant containing pKPCZA02_4; assay type: cell-based; conditions: Escherichia coli, J53KPCZA02, E. coli J53-KPCZA02 (blaCMY-172)
Protocol: as §3
as §6, with “The blaCMY-178-postive transconjugants were confirmed by PCR and MALDI-TOF MS (see Fig. S9 in the supplemental material).” left out

Which results are given for `C[C@]1(Cn2ccnn2)[C@H](C(=O)O)N2C(=O)C[C@H]2S1(=O)=O` [TAZ, tazobactam]?
Ki (CMY-2): 760 ± 70 nM; Ki (CMY-172): 2120 ± 340 nM; Ki (CMY-178): 2490 ± 510 nM; Increase of Ki value of CMY-178 compared with CMY-172 (CMY-178): less than 2 fold

Which MIC (E. coli strain AR13438) does the source give for `CC(C)(O/N=C(\C(=O)N[C@@H]1C(=O)N2C(C(=O)[O-])=C(C[n+]3ccccc3)CS[C@H]12)c1csc(N)n1)C(=O)O` [CAZ, ceftazidime] here?
Its MIC is 2050 µg/mL (≈ 3750 µM).

And the MIC [1]?
Its MIC is 2050 µg/mL (≈ 3750 µM).

What about the MIC (E. coli DH5α) of the same molecule?
The MIC was 0.25 µg/mL (≈ 0.457 µM).

What about the MIC (E. coli DH5α-pCR2.1) of the same molecule?
The MIC was 0.25 µg/mL (≈ 0.457 µM).

And the MIC [2]?
The MIC was 256 µg/mL (≈ 468 µM).

And the MIC ([3]; Escherichia coli, E. coli DH5α-pCR2.1-CMY-178, agar dilution)?
The MIC was over 2050 µg/mL.

And the “Increase of MIC by blaCMY-178 compared with blaCMY-172” value ([3]; transformants in E. coli DH5α)?
The value was “over 4 fold”.

And the MIC [4]?
Its MIC is 512 µg/mL (≈ 937 µM).

And the MIC (E. coli J53)?
Its MIC is 0.25 µg/mL (≈ 0.457 µM).

What about the MIC (E. coli J53-AR13438) of the same molecule?
The MIC was 1020 µg/mL (≈ 1870 µM).

What about the MIC (E. coli J53-KPCZA02) of the same molecule?
Its MIC is 512 µg/mL (≈ 937 µM).

What about the Ki (CMY-2; CMY-2, competition with 100 μM nitrocefin, 2-min incubation, mean ± SD, read-out: Ki) of the same molecule?
The Ki was 32.1 nM.

What about the Ki (CMY-172) of the same molecule?
Its Ki is 1.06 nM.

And the Ki (CMY-178)?
Its Ki is 9.27 nM.

And the “Increase of Ki value of CMY-178 compared with CMY-172” value (CMY-178)?
Its value is ~ 5 fold.
